Source: ChEMBL document CHEMBL6134868, “Novel Aryl Sulfonium Modification on Vancomycin to Tackle MRSA and VRE In Vitro and In Vivo through Dual Enhanced Cell-Wall and Membrane Inhibition” (J Med Chem, 2025)
In brackets after ≈: the same amount, converted by molar mass.

Legend:
[1] = Protein binding in plasma (unknown origin); assay type: ADME, cell-free; details: read-out: PPB (converted)
Enterococcus faecium [2] = assay: Antibacterial activity against vancomycin-resistant Enterococcus faecium Efm-HS-vb01 harboring VanB phenotype incubated for 16 to 24 hrs by broth microdilution assay; assay type: functional; details: time 16-24 hrs
Klebsiella pneumoniae = assay: Antibacterial activity against Klebsiella pneumoniae KP-1 incubated for 16 to 24 hrs by broth microdilution assay; assay type: functional; details: time 16-24 hrs
Enterococcus faecium [3] = assay: Antibacterial activity against vancomycin-resistant Enterococcus faecium Efm-HS-0649 harboring VanA phenotype incubated for 16 to 24 hrs by broth microdilution assay; assay type: functional; details: time 16-24 hrs
Acinetobacter baumannii [4] = assay: Antibacterial activity against Acinetobacter baumannii ATCC19606 incubated for 16 to 24 hrs by broth microdilution assay; assay type: functional; details: time 16-24 hrs
Enterococcus faecium [5] = assay: Antibacterial activity against vancomycin-resistant Enterococcus faecium Efm-HS-vb02 harboring VanB phenotype incubated for 16 to 24 hrs by broth microdilution assay; assay type: functional; details: time 16-24 hrs
Enterococcus faecium [6] = assay: Antibacterial activity against vancomycin-resistant Enterococcus faecium Efm-HS-08257 harboring VanM phenotype incubated for 16 to 24 hrs by broth microdilution assay; assay type: functional; details: time 16-24 hrs
Escherichia coli = assay: Antibacterial activity against Escherichia coli AB1157 incubated for 16 to 24 hrs by broth microdilution assay; assay type: functional; details: time 16-24 hrs
Staphylococcus aureus [7] = assay: Antibacterial activity against vancomycin-intermediate Staphylococcus aureus Mu50 incubated for 16 to 24 hrs by broth microdilution assay; assay type: functional; details: time 16-24 hrs
Acinetobacter baumannii [8] = assay: Antibacterial activity against carbapenem-resistant Acinetobacter baumannii CRAB-1 clinical isolate incubated for 16 to 24 hrs by broth microdilution assay; assay type: functional; details: time 16-24 hrs
Staphylococcus aureus [9] = assay: Antibacterial activity against methicillin-resistant Staphylococcus aureus USA300 LAC incubated for 16 to 24 hrs by broth microdilution assay; assay type: functional; details: time 16-24 hrs
Pseudomonas aeruginosa = assay: Antibacterial activity against Pseudomonas aeruginosa PAO1 incubated for 16 to 24 hrs by broth microdilution assay; assay type: functional; details: time 16-24 hrs

SMILES	fraction unbound [1]	MIC (Enterococcus faecium [2]) [µg/mL]	MIC (Klebsiella pneumoniae) [µg/mL]	MIC (Enterococcus faecium [3]) [µg/mL]	MIC (Acinetobacter baumannii [4]) [µg/mL]	MIC (Enterococcus faecium [5]) [µg/mL]	MIC (Enterococcus faecium [6]) [µg/mL]	MIC (Escherichia coli) [µg/mL]	MIC (Staphylococcus aureus [7]) [µg/mL]	MIC (Acinetobacter baumannii [8]) [µg/mL]	MIC (Staphylococcus aureus [9]) [µg/mL]	MIC (Pseudomonas aeruginosa) [µg/mL]
CN[C@H]1C(=O)N[C@@H]2Cc3ccc(cc3)Oc3cc4cc(c3O[C@@H]3O[C@H](C(=O)O)[C@@H](O)[C@H](O)[C@H]3NC(=O)CCCCCCCCC(C)C)Oc3ccc(cc3Cl)[C@@H](O)[C@@H]3NC(=O)[C@H](NC(=O)[C@@H]4NC(=O)[C@@H](NC2=O)c2cc(cc(O)c2Cl)Oc2cc1ccc2O)c1ccc(O)c(c1)-c1c(OC2OC(CO)C(O)C(O)C2O)cc(O)cc1[C@@H](C(=O)NCCCN(C)C)NC3=O (some centres undefined)	0.07	–	–	–	–	–	–	–	–	–	–	–
CN[C@H](CC(C)C)C(=O)N[C@H]1C(=O)N[C@@H](CC(N)=O)C(=O)N[C@H]2C(=O)N[C@H]3C(=O)N[C@H](C(=O)N[C@H](C(=O)O)c4cc(O)cc(O)c4-c4cc3ccc4O)[C@H](O[C@H]3C[C@](C)(N)[C@@H](O)[C@H](C)O3)c3ccc(c(Cl)c3)Oc3cc2cc(c3O[C@@H]2O[C@H](CO)[C@@H](O)[C@H](O)[C@H]2O[C@H]2C[C@](C)(NCc3ccc(-c4ccc(Cl)cc4)cc3)[C@@H](O)[C@H](C)O2)Oc2ccc(cc2Cl)[C@H]1O [ORITAVANCIN]	0.14	–	–	–	–	–	–	–	–	–	–	–
CCCCCCCCCCNCCN[C@@]1(C)C[C@H](O[C@H]2[C@H](Oc3c4cc5cc3Oc3ccc(cc3Cl)[C@@H](O)[C@@H](NC(=O)[C@@H](CC(C)C)NC)C(=O)N[C@@H](CC(N)=O)C(=O)N[C@H]5C(=O)N[C@H]3C(=O)N[C@H](C(=O)N[C@H](C(=O)O)c5cc(O)c(CNCP(=O)(O)O)c(O)c5-c5cc3ccc5O)[C@H](O)c3ccc(c(Cl)c3)O4)O[C@H](CO)[C@@H](O)[C@@H]2O)O[C@@H](C)[C@H]1O [TELAVANCIN]	0.1	–	–	–	–	–	–	–	–	–	–	–
CN[C@H](CC(C)C)C(=O)N[C@H]1C(=O)N[C@@H](CC(N)=O)C(=O)N[C@H]2C(=O)N[C@H]3C(=O)N[C@H](C(=O)N[C@H](C(=O)NCCC[S+](C)CC(O)COc4ccc(-c5ccc(Cl)cc5)cc4)c4cc(O)cc(O)c4-c4cc3ccc4O)[C@H](O)c3ccc(c(Cl)c3)Oc3cc2cc(c3O[C@@H]2O[C@H](CO)[C@@H](O)[C@H](O)[C@H]2O[C@H]2C[C@](C)(N)[C@H](O)[C@H](C)O2)Oc2ccc(cc2Cl)[C@H]1O.O=C([O-])C(F)(F)F (some centres undefined)	–	4	> 128	2	16	0.5	2	16	0.25	64	≤ 0.063	> 128
CC(C)C[C@H](C(=O)N[C@H]1C(=O)N[C@@H](CC(N)=O)C(=O)N[C@H]2C(=O)N[C@H]3C(=O)N[C@H](C(=O)N[C@H](C(=O)O)c4cc(O)cc(O)c4-c4cc3ccc4O)[C@H](O)c3ccc(c(Cl)c3)Oc3cc2cc(c3O[C@@H]2O[C@H](CO)[C@@H](O)[C@H](O)[C@H]2O[C@H]2C[C@](C)(N)[C@H](O)[C@H](C)O2)Oc2ccc(cc2Cl)[C@H]1O)N(C)CCC[S+](C)C[C@@H](O)COc1ccccc1.O=C([O-])C(F)(F)F (some centres undefined)	–	64	> 128	> 128	> 128	32	128	> 128	8	> 128	1	> 128
CN[C@H](CC(C)C)C(=O)N[C@H]1C(=O)N[C@@H](CC(N)=O)C(=O)N[C@H]2C(=O)N[C@H]3C(=O)N[C@H](C(=O)N[C@H](C(=O)NCCCSCC(O)COc4ccc(-c5ccc(C(F)(F)F)cc5)cc4)c4cc(O)cc(O)c4-c4cc3ccc4O)[C@H](O)c3ccc(c(Cl)c3)Oc3cc2cc(c3O[C@@H]2O[C@H](CO)[C@@H](O)[C@H](O)[C@H]2O[C@H]2C[C@](C)(N)[C@H](O)[C@H](C)O2)Oc2ccc(cc2Cl)[C@H]1O (some centres undefined)	–	4 (≈ 2.2 µM)	> 128	4 (≈ 2.2 µM)	> 128	2 (≈ 1.1 µM)	2 (≈ 1.1 µM)	> 128	1 (≈ 0.55 µM)	> 128	1 (≈ 0.55 µM)	> 128
CN[C@H](CC(C)C)C(=O)N[C@H]1C(=O)N[C@@H](CC(N)=O)C(=O)N[C@H]2C(=O)N[C@H]3C(=O)N[C@H](C(=O)N[C@H](C(=O)O)c4cc(O)cc(O)c4-c4cc3ccc4O)[C@H](O)c3ccc(c(Cl)c3)Oc3cc2cc(c3O[C@@H]2O[C@H](CO)[C@@H](O)[C@H](O)[C@H]2O[C@H]2C[C@](C)(NCCC[S+](C)C[C@@H](O)COc3ccccc3)[C@H](O)[C@H](C)O2)Oc2ccc(cc2Cl)[C@H]1O.O=C([O-])C(F)(F)F (some centres undefined)	–	16	> 128	16	128	4	16	128	1	128	0.25	> 128
CN[C@H](CC(C)C)C(=O)N[C@H]1C(=O)N[C@@H](CC(N)=O)C(=O)N[C@H]2C(=O)N[C@H]3C(=O)N[C@H](C(=O)N[C@H](C(=O)NCCC[S+](C)CC(O)COc4ccc(Cl)cc4)c4cc(O)cc(O)c4-c4cc3ccc4O)[C@H](O)c3ccc(c(Cl)c3)Oc3cc2cc(c3O[C@@H]2O[C@H](CO)[C@@H](O)[C@H](O)[C@H]2O[C@H]2C[C@](C)(N)[C@H](O)[C@H](C)O2)Oc2ccc(cc2Cl)[C@H]1O.O=C([O-])C(F)(F)F (some centres undefined)	–	8	> 128	16	32	4	8	16	1	128	≤ 0.063	128
CN[C@H](CC(C)C)C(=O)N[C@H]1C(=O)N[C@@H](CC(N)=O)C(=O)N[C@H]2C(=O)N[C@H]3C(=O)N[C@H](C(=O)N[C@H](C(=O)NCCC[S+](C)CC(O)COc4ccc(C(F)(F)F)cc4)c4cc(O)cc(O)c4-c4cc3ccc4O)[C@H](O)c3ccc(c(Cl)c3)Oc3cc2cc(c3O[C@@H]2O[C@H](CO)[C@@H](O)[C@H](O)[C@H]2O[C@H]2C[C@](C)(N)[C@H](O)[C@H](C)O2)Oc2ccc(cc2Cl)[C@H]1O.O=C([O-])C(F)(F)F (some centres undefined)	–	8	> 128	16	32	4	8	32	1	64	≤ 0.063	128
